Measured values: patent US20190231411A1, “METHOD FOR PREDICTING CYTOTOXICITY OF COLD ATMOSPHERIC PLASMA TREATMENT ON CANCER CELLS” (U.S. Patent Innovations, LLC, priority 2018, published 2019)

Tested on: B16F10 cells
Test: H2O2 treatment, MTT cell viability assay
Format: cell-based, murine
Settings: compared with the other cell lines, FIG. 7B
Experimental: Cell cultures. The experiment investigated 10 cancer cell lines, which include many representative cell lines in plasma medicine. Human pancreas ductal adenocarcinoma cell line (PANC-1) was purchased from American Type Culture Collection (ATCC). Other cell lines were donated by several labs at the George Washington University. These cells were all purchased from ATCC by the different labs. Human pancreatic adenocarcinoma cell line (PA-TU-8988T), human glioblastoma cell line (U87MG), as well as human lung carcinoma cell line (A549) were provided by Dr. Murad's lab. Human breast cancer cell lines (MDA-MB-231, MCF-7) were provided by Dr. Zhang's lab. Human ovarian carcinoma cell line (SK-OV-3), human ovarian carcinoma cell line (IGROV-1), human colorectal carcinoma cell line (HCT116), as well as human bone osteosarcoma cell line (U-2 OS) were provided by Dr. Zhu's lab. Murine melanoma cell line (B16F10) was provided by Dr. Sotomayor's lab. […]
Cell viability assay. […] The absorbance at 570 nm was measured by a H1 microplate reader (Hybrid Technology). The measured absorbance was processed to be a relative cell viability by the division between the data of the experimental group and the control group.

## OO [H2O2]
  resistance to H2O2 treatment: strongest resistance to H2O2 treatment
